Source: article PMC10811921 (Virology Journal, 2024)

Target: T1, furin (Homo sapiens, UniProt P09958)
T1 construct: recombinant soluble human furin
Assay: fluorogenic protease assay with Pyr-RTKR-AMC substrate
Assay type: biochemical

T1 sequence (P09958 108-715): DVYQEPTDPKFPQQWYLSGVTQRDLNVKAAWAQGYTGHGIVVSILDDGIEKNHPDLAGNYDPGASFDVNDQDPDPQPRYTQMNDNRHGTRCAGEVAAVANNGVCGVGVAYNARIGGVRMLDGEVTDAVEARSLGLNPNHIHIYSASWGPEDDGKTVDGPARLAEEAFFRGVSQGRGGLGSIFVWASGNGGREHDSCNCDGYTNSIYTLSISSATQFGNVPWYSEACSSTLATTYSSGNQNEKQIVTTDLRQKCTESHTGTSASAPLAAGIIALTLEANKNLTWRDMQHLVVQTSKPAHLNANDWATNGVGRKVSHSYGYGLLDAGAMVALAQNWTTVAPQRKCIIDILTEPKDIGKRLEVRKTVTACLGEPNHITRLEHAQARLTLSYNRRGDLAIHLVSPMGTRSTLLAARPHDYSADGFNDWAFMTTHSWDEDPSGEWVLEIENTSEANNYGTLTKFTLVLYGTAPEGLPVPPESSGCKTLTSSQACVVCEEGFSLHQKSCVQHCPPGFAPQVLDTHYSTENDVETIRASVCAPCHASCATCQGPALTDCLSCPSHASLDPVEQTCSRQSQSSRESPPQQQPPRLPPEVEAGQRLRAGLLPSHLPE

Structure (SMILES): O=c1c(O)c(-c2ccc(O)c(O)c2)oc2cc(O)cc(O)c12 [QC, quercetin]
- IC50: ~116 µM
